Measurements taken from patent EP0913483A2, “Method and reagent for the determination of creatine kinase” (Roche Diagnostics GmbH, priority 1997, dated 1999).

test system: Glucose-6-phosphat-Dehydrogenase; assay: Conversion of different hexoses by glucose-6-phosphate dehydrogenase in the presence of NADP+ (photometric); type: biochemical; settings: Hexose 50 mmol/l, G6P-DH 10 U/ml, NADP+ added, 37 °C, 340 nm, ca. 40 min, Imidazol·HCl pH 6,6
Method: Beispiel 1: Umsetzung verschiedener Hexosen mit Glucose-6-phosphat-Dehydrogenase in Gegenwart von NADP^+
Testansatz: Es wurden in einer Küvette mit einer Schichtdicke von 1 cm jeweils 1,0 ml Reagenz A mit 0,1 ml Reagenz B vermischt und mit einem Spektralphotometer bei 37 °C und 340 nm der Extinktionsverlauf über ca. 40 min verfolgt.

Compound	NADPH-Bildung (Extinktionsverlauf)
O=C(CO)[C@@H](O)[C@H](O)[C@H](O)CO [Fructose]	keine Extinktionsveränderung meßbar
Glucose [reference compound]	signifikante NADPH-Bildung
Mannose	keine Extinktionsveränderung meßbar
